Test results taken from US9394305B2, “Substituted imidazo[1,2-a]pyridine compounds as tropomyosin receptor kinase a (TrkA) inhibitors” (Dr. Reddy's Laboratories Ltd., priority 2014, dated 2016).

target: T1, TrkA kinase (Homo sapiens, UniProt P04629); assay: In vitro TrkA inhibitory activity using TR-FRET assay; assay type: biochemical; details: 5 ng TrkA, 500 μM ATP, values given as bins, read-out: TrkA inhibition in-vitro IC50
T1 construct: purchased Upstate, USA
Experimental: Compounds were screened in the TR-FRET assay with TrkA kinase. 5 ng of TrkA [Upstate, USA] kinase was used for assay. The compound was incubated with the kinase for 30 minutes at 20-35° C. After the incubation, substrate mix [40 nM Ultra light poly GT (Perkin Elmer, USA) and 500 μM ATP] was added. The above reaction was stopped by the addition of 40 mM EDTA after 30 minutes. The Eu-labelled antiphospho-tyrosine antibody [Perkin Elmer, USA] was added at 0.5 nM and the fluorescence emission at 615 nm/665 nm [excitation at 340 nm] was measured. The compounds were initially screened at 100 nM, 1 μM and 10 μM concentrations. The potent compounds with >25% inhibition at 1 μM of TrkA were taken for the full dose response studies. The final DMSO concentration in the assay was […]. For IC50 determination, ⅓^rd serial dilution was made from the 20 mM DMSO stock solution. 2 μl of these were transferred to the test wells containing 20 μl reaction mixture [Total reaction volume 22 μl]. The fluorescence was measured in Perkin Elmer Wallac 1420 Multilabel Counter Victor 3. The IC50 was determined by fitting the dose response data to a sigmoidal curve fitting equation using GraphPad Prism software version 5.

T1 sequence (P04629 33-796): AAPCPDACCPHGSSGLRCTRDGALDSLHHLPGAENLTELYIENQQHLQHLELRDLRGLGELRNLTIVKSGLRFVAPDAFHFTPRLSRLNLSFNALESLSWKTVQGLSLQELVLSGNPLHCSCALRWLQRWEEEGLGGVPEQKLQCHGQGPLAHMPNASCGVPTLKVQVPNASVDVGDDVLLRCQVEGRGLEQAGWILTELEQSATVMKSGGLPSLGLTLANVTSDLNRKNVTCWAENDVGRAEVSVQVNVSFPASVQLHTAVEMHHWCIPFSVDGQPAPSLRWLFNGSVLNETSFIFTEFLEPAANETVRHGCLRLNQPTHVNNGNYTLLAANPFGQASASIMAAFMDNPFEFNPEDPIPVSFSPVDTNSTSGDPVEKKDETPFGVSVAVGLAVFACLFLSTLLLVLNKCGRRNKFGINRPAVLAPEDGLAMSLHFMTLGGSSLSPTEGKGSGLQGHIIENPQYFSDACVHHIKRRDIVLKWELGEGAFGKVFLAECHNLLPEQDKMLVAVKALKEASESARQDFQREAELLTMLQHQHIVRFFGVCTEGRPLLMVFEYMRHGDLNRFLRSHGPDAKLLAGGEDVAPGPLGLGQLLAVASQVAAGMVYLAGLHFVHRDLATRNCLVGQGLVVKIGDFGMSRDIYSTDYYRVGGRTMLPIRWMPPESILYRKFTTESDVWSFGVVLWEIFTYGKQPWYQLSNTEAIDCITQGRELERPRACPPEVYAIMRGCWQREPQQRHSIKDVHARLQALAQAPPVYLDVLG

IC50	SMILES
≤ 0.05 µM	CCN(CC)S(=O)(=O)NC(=O)c1cnc2ccc(N3C[C@@H](F)C[C@@H]3c3cc(F)ccc3O[C@@H]3CCOC3)cn12 [Example 74, N—(N,N-diethylsulfamoyl)-6-((2R,4S)-4-fluoro-2-(5-fluoro-2-(((R)-tetrahydrofuran-3-yl)oxy)phenyl)pyrrolidin-1-yl)imidazo[1,2-a]pyridine-3-carboxamide]
≤ 0.05 µM	CCN(CCF)S(=O)(=O)NC(=O)c1cnc2ccc(N3C[C@@H](F)C[C@@H]3c3cc(F)ccc3O[C@@H]3CCOC3)cn12 [Example 75, N—(N-ethyl-N-(2-fluoroethyl)sulfamoyl)-6-((2R,4S)-4-fluoro-2-(5-fluoro-2-(((R)-tetrahydrofuran-3-yl)oxy)phenyl)pyrrolidin-1-yl)imidazo[1,2-a]pyridine-3-carboxamide]
≤ 0.05 µM	COCCN(C)S(=O)(=O)NC(=O)c1cnc2ccc(N3C[C@@H](F)C[C@@H]3c3cc(F)ccc3O[C@@H]3CCOC3)cn12 [Example 76, 6-((2R,4S)-4-fluoro-2-(5-fluoro-2-(((R)-tetrahydrofuran-3-yl)oxy)phenyl)pyrrolidin-1-yl)-N—(N-(2-methoxyethyl)-N-methylsulfamoyl)imidazo[1,2-a]pyridine-3-carboxamide]
≤ 0.05 µM	CN(c1nccs1)S(=O)(=O)NC(=O)c1cnc2ccc(N3C[C@@H](F)C[C@@H]3c3cc(F)ccc3O[C@@H]3CCOC3)cn12 [Example 77, 6-((2R,4S)-4-fluoro-2-(5-fluoro-2-(((R)-tetrahydrofuran-3-yl)oxy)phenyl)pyrrolidin-1-yl)-N—(N-methyl-N-(thiazol-2-yl)sulfamoyl)imidazo[1,2-a]pyridine-3-carboxamide]
≤ 0.05 µM	Cc1ccc(N(C)S(=O)(=O)NC(=O)c2cnc3ccc(N4C[C@@H](F)C[C@@H]4c4cc(F)ccc4O[C@@H]4CCOC4)cn23)nn1 [Example 78, 6-((2R,4S)-4-fluoro-2-(5-fluoro-2-(((R)-tetrahydrofuran-3-yl)oxy)phenyl)pyrrolidin-1-yl)-N—(N-methyl-N-(6-methylpyridazin-3-yl)sulfamoyl)imidazo[1,2-a]pyridine-3-carboxamide]
0.1 to 0.5 µM	CC(C)(C)S(=O)(=O)NC(=O)c1cnc2ccc(N3CCC[C@@H]3c3cc(F)ccc3OC3CCOCC3)cn12 [Example 79, (R)—N-(tert-butylsulfonyl)-6-(2-(5-fluoro-2-((tetrahydro-2H-pyran-4-yl)oxy)phenyl)pyrrolidin-1-yl)imidazo[1,2-a]pyridine-3-carboxamide]
0.05 to 0.1 µM	CCN(C)S(=O)(=O)NC(=O)c1cnc2ccc(N3CCC[C@@H]3c3cc(F)ccc3OC3CCOCC3)cn12 [Example 80, (R)—N—(N-ethyl-N-methylsulfamoyl)-6-(2-(5-fluoro-2-((tetrahydro-2H-pyran-4-yl)oxy)phenyl)pyrrolidin-1-yl)imidazo[1,2-a]pyridine-3-carboxamide]
≤ 0.05 µM	CN(c1nccs1)S(=O)(=O)NC(=O)c1cnc2ccc(N3CCC[C@@H]3c3cc(F)ccc3OC3CCOCC3)cn12 [Example 81, (R)-6-(2-(5-fluoro-2-((tetrahydro-2H-pyran-4-yl)oxy)phenyl)pyrrolidin-1-yl)-N—(N-methyl-N-(thiazol-2-yl)sulfamoyl)imidazo[1,2-a]pyridine-3-carboxamide]
0.05 to 0.1 µM	COCCN(C)S(=O)(=O)NC(=O)c1cnc2ccc(N3CCC[C@@H]3c3cc(F)ccc3OC3CCOCC3)cn12 [Example 82, (R)-6-(2-(5-fluoro-2-((tetrahydro-2H-pyran-4-yl)oxy)phenyl)pyrrolidin-1-yl)-N—(N-(2-methoxyethyl)-N-methylsulfamoyl)imidazo[1,2-a]pyridine-3-carboxamide]
≤ 0.05 µM	CCOCCN(C)S(=O)(=O)NC(=O)c1cnc2ccc(N3CCC[C@@H]3c3cc(F)ccc3OC3CCOCC3)cn12 [Example 83, (R)—N—(N-(2-ethoxyethyl)-N-methylsulfamoyl)-6-(2-(5-fluoro-2-((tetrahydro-2H-pyran-4-yl)oxy)phenyl)pyrrolidin-1-yl)imidazo[1,2-a]pyridine-3-carboxamide]
≤ 0.05 µM	CN(c1ccccn1)S(=O)(=O)NC(=O)c1cnc2ccc(N3CCC[C@@H]3c3cc(F)ccc3OC3CCOCC3)cn12 [Example 84, (R)-6-(2-(5-fluoro-2-((tetrahydro-2H-pyran-4-yl)oxy)phenyl)pyrrolidin-1-yl)-N—(N-methyl-N-(pyridin-2-yl)sulfamoyl)imidazo[1,2-a]pyridine-3-carboxamide]
≤ 0.05 µM	Cc1nnc(N(C)S(=O)(=O)NC(=O)c2cnc3ccc(N4CCC[C@@H]4c4cc(F)ccc4OC4CCOCC4)cn23)s1 [Example 85, (R)-6-(2-(5-fluoro-2-((tetrahydro-2H-pyran-4-yl)oxy)phenyl)pyrrolidin-1-yl)-N—(N-methyl-N-(5-methyl-1,3,4-thiadiazol-2-yl)sulfamoyl)imidazo[1,2-a]pyridine-3-carboxamide]
≤ 0.05 µM	CN(c1nncs1)S(=O)(=O)NC(=O)c1cnc2ccc(N3CCC[C@@H]3c3cc(F)ccc3OC3CCOCC3)cn12 [Example 86, (R)-6-(2-(5-fluoro-2-((tetrahydro-2H-pyran-4-yl)oxy)phenyl)pyrrolidin-1-yl)-N—(N-methyl-N-(1,3,4-thiadiazol-2-yl)sulfamoyl)imidazo[1,2-a]pyridine-3-carboxamide]
≤ 0.05 µM	Cc1ccc(N(C)S(=O)(=O)NC(=O)c2cnc3ccc(N4CCC[C@@H]4c4cc(F)ccc4OC4CCOCC4)cn23)nn1 [Example 87, (R)-6-(2-(5-fluoro-2-((tetrahydro-2H-pyran-4-yl)oxy)phenyl)pyrrolidin-1-yl)-N—(N-methyl-N-(6-methylpyridazin-3-yl)sulfamoyl)imidazo[1,2-a]pyridine-3-carboxamide]
≤ 0.05 µM	CCCN(C)S(=O)(=O)NC(=O)c1cnc2ccc(N3C[C@@H](F)C[C@@H]3c3cc(F)ccc3OC3CCOCC3)cn12 [Example 88, 6-((2R,4S)-4-fluoro-2-(5-fluoro-2-((tetrahydro-2H-pyran-4-yl)oxy)phenyl)pyrrolidin-1-yl)-N—(N-methyl-N-propylsulfamoyl)imidazo[1,2-a]pyridine-3-carboxamide]
≤ 0.05 µM	COCCN(C)S(=O)(=O)NC(=O)c1cnc2ccc(N3C[C@@H](F)C[C@@H]3c3cc(F)ccc3OC3CCOCC3)cn12 [Example 89, 6-((2R,4S)-4-fluoro-2-(5-fluoro-2-((tetrahydro-2H-pyran-4-yl)oxy)phenyl)pyrrolidin-1-yl)-N—(N-(2-methoxyethyl)-N-methylsulfamoyl)imidazo[1,2-a]pyridine-3-carboxamide]
≤ 0.05 µM	CN(c1ccn(C)n1)S(=O)(=O)NC(=O)c1cnc2ccc(N3CCC[C@@H]3c3cc(F)ccc3F)cn12 [Example 90, (R)-6-(2-(2,5-difluorophenyl)pyrrolidin-1-yl)-N—(N-methyl-N-(1-methyl-1H-pyrazol-3-yl)sulfamoyl)imidazo[1,2-a]pyridine-3-carboxamide]
0.05 to 0.1 µM	CN(c1ccn(C)n1)S(=O)(=O)NC(=O)c1cnc2ccc(N3CCC[C@@H]3c3cc(F)ccc3OC3CCOCC3)cn12 [Example 91, (R)-6-(2-(5-fluoro-2-((tetrahydro-2H-pyran-4-yl)oxy)phenyl)pyrrolidin-1-yl)-N—(N-methyl-N-(1-methyl-1H-pyrazol-3-yl)sulfamoyl)imidazo[1,2-a]pyridine-3-carboxamide]
